Test results: patent publication US7323188B2 (priority 1997, dated 2008)
Values joined by “and” are separate entries in the source; they are usually repeats but may differ in a detail not shown here. Identical values can stand only once. Like-named read-outs stand apart in the source and are kept apart here.

How the values were obtained:
Details in all cases: in vivo
[1] = test system: downy mildew (Pseudoperonospora cubensis)
[2] = test system: downy mildew (Pseudoperonospora cubensis); remark: listed apart in the source
[3] = test system: downy mildew (Pseudoperonospora cubensis); remark: listed apart in the source
[4] = test system: late blight (Phytophthora infestans)
[5] = test system: downy mildew (Pseudoperonospora cubensis); remark: listed apart in the source
[6] = test system: late blight (Phytophthora infestans); remark: listed apart in the source
[7] = test system: downy mildew (Pseudoperonospora cubensis); remark: listed apart in the source

Compound | Incidence rate [1] | Incidence rate [2] | Incidence rate [3] [%] | also measured
COCC(=O)N(c1c(C)cccc1C)C(C)C(=O)OC (racemic) [Metalaxyl, methyl N-(2-methoxyacetyl)-N-(2,6-xylyl)-DL-alaninate] | 60% and 100% | – | – | –
O=P([O-])([O-])O.[K+].[K+] [K2HPO4, dipotassium hydrogenphosphate] | – | 95% | 95 | –
CO/N=C(/C(=O)OC)c1ccccc1COc1ccccc1C [Compound (b), methyl (E)-methoxyimino[α-(o-tolyloxy)-O-tolyl]acetate] | 100% | – | – | –
CO/C=C(/C(=O)OC)c1ccccc1Oc1cc(Oc2ccccc2C#N)ncn1 [Compound (a), methyl (E)-2-{2-[6-(2-cyanophenoxy)pyrimidin-4-yloxy]phenyl}-3-methoxyacrylate] | – | – | – | Theoretical incidence rate (Colby's formula) [1]: 100 (100) %
OP(O)O [H2(PO3H), phosphorous acid] | – | 75% | 75 | –
O=P([O-])([O-])O.[Na+].[Na+] [Na2HPO4, disodium hydrogenphosphate] | – | 100% | 100 | –
CCNC(=O)NC(=O)C(C#N)=NOC [Cymoxanil, 1-(2-cyano-2-methoxyiminoacetyl)-3-ethylurea] | – | – | – | Incidence rate [4]: 100%
COc1ccc(C(=CC(=O)N2CCOCC2)c2ccc(Cl)cc2)cc1OC [Dimethomorph, (E,Z)-4-[(3-(4-chlorophenyl)-3-(3,4-dimethoxyphenyl)acryloyl]morpholine] | 50% and 60% | – | – | Incidence rate [4]: 85% and 100%
Cc1ccc(-c2c(Cl)nc(C#N)n2S(=O)(=O)N(C)C)cc1 [Compound No. 1, 4-chloro-2-cyano-1-dimethylsulfamoyl-5-(4-methylphenyl)imidazole] | – | 85% and 90% | – | Incidence rate [5]: 87% and 95%; Incidence rate [6]: 47% and 50% and 31% and 37%; Lesion-free Area Ratio [7]: 65%
